According to patent US20240285552A1 (priority 2020, published 2024):
Where a name gives a salt, the structure may show the parent alone. Read-outs that look alike come from different tables or passages of the source.

How the values were obtained:
[1] = tested on: SARS CoV-2 nanoluciferase reporter virus; experiment: microbe, parasite or virus in culture; assay type: cell-based; conditions: for IC50: read-out: IC50, viral replication, Nanoluciferase Reporter Virus Assay
ACE1 = experiment: Western blotting, ACE1 expression in A549 cells; assay type: cell-based, human; conditions: 50 μm, 24 hrs and 48 hrs
Experimental: (§1) Western blotting. A549 “Lung” cells (RRID:CVCL_COQ5) were harvested in a radioimmuno precipitation assay (RIPA) buffer (Tris 10 mM pH 7.4, containing 140 mM NaCl, 1 mM EDTA, 1 mM NaF, 0.10% SDS, 0.50% sodium deoxycholate 0.1% NP-40, 1% Triton X-100) in the presence of protease inhibitors (Thermo Fisher) at 24 hrs. and 48 hrs. Protein concentration was determined by was determined using bicinchoninic acid with bovine serum albumin as a standard (Thermo Fisher). Equal amounts of protein were loaded and separated by SDS-PAGE using 10% pre-casted gels (Biorad). Proteins were electroblotted onto nitrocellulose membranes (Bio-Rad). The blots were blocked using 5% (w/v) milk in Tris-buffered saline containing 0.5% (v/v) Tween-20. The membranes were then incubated with different antibodies. Antibodies directed against ACE1 (ab28311) and ACE2 (ab108209) were used and the GAPDH antibody was used as loading control for cell lysates. Primary and secondary antibodies were diluted in Tris-buffered saline containing (0.5% v/v) Tween-20 (TBS-T) supplemented with 5% milk. The bands were visualized by incubating the blots with enhanced chemiluminescence reagent (ECL, Biorad) and visualized using chemidoc. Band intensities were quantified by using imagelab software Biorad.

ACE2 = experiment: Western blotting, ACE2 expression in A549 cells; assay type: cell-based, human; conditions: 50 μm, 24 hrs and 48 hrs
Experimental: as §1

in vitro = conditions: human, Cytotoxicity CC50, A549 cells, 72 hours

Structure (SMILES)	Concentration at Maximum % Inhibition ([1]; A549-ACE2, NLRV) [µM]	Maximum Inhibition ([1]; A549-ACE2, NLRV) [%]	IC50 ([1]; Severe acute respiratory syndrome coronavirus 2, A549, 72 h) [µM]	IC50 ([1]; hydrochloride) [µM]	change of ACE1 expression (ACE1)	change of ACE2 expression (ACE2)	CC50 at 72 h (in vitro) [µM]	Conc. at Max. % Viability (A549 cells) [µM]	Conc. at Min. % Viability (A549 cells) [µM]	Max. Viability (A549 cells) [%]	Min. Viability (A549 cells) [%]	CC50 (A549 cells; read-out: Cytotoxicity CC50, 72 hours, hydrochloride) [µM]	change of ACE2 expression (ACE2; hydrochloride)	change of ACE2 expression (ACE2; listed as BBH, hydrochloride)
Nc1c(Br)cc(Br)cc1CN[C@H]1CC[C@H](O)CC1 [AMB, 4-[(2-amino-3,5-dibromophenyl)methylamino]cyclohexan-1-ol; hydrochloride]	300	99.73	47	47.3	no changes	no changes	137	2.34	300	100	0.14	137	–	–
CN(Cc1cc(Br)cc(Br)c1N)C1CCCCC1 [BHH, Bromhexine hydrochloride]	–	–	–	–	no changes	–	–	–	–	–	–	–	no changes	does not affect
